“Also recorded” adds a separate entry of the source.
Experiments:
[1] = test system: mouse macrophages (bone marrow derived, ABCA1 fl/fl WT) treated with 5% CSE; assay: Mouse macrophages treated with 5% CSE with or without LXR agonist (RT-PCR, Western blot, zymography); assay type: cell-based
Experimental: To prepare cigarette (CSE), the smoke from one cigarette (1.1 mg of nicotine, 15 mg of tar) was passed through 25 mls of phosphate buffered saline (PBS) (Mercer et al., 2004). The pH of the extracted solution was adjusted to 7.4 and then filtered (Mercer et al., 2004). CSE was added to the media at concentrations up to 5% (vol/vol) (Mercer et al., 2004).
In these experiments both mouse peritoneal and mouse bone marrow derived macrophages (BMdM) were utilized. Mouse peritoneal macrophages were isolated from peritoneal cavities of 3% thioglycolate injected mice on the 5th day from injection. To compare expression of genes in vitro and in vivo peritoneal macrophages were isolated from mice exposed to room air and cigarette smoke. For in vitro analysis cells were seeded on culture plates for 24 h and then treated with CSE. For in vivo analysis cells were collected from peritoneal cavity and mRNA was directly isolated. Mouse BMdMs were obtained from the following mice: ABCA1 fl/fl in a C57/BL6 background. Briefly, mice were first sacrificed by CO2 asphyxiation followed by cervical dislocation. After sacrificing the mouse the legs were amputated and the excess muscle tissue was removed so as to completely expose the femur and tibia, which were cleaned carefully. These samples were left in sterile PBS for the duration of the procedure. The cavity bones were then flushed with 10 ml of PBS using 26G needle. The obtained cells were then counted (usually 100-150 million cells per mouse) and centrifuged for 5 min at 2600 rpm. Hematopoietic cells can be separated by plastic adhesion; therefore the cells were incubated in petri dishes containing DMEM culture media and supplemented with 10% FBS and 1% antibiotics). Non-adherent progenitor cells were then collected after 2 hours of incubation in culture media and then seeded at a concentration of 4 million cells/ml in fresh culture media, supplemented with L-cell conditioned media containing macrophage colony stimulating factor (M-CSF) at a concentration of 20%. Approximately after 7-10 days of plating the cells become fully differentiated into macrophages and were ready for subsequent experiments. After treatment the culture supernatants, proteins, and total RNA were collected for analysis. […]
Total RNA was extracted from specimens of lung tissue 0.3 cm^3 in size with the use of the RNeasy kit (Qiagen, Germantown, Md.) (Goldklang et al., 2012). The RNA was then further processed to obtain cDNA, which was used for Real Time (RT) PCR analysis. TaqMan gene expression assays (Applied Biosystems, Carlsbad, Calif.) were performed to assess gene-transcript levels with the use of an ABI Prism 7900HT Sequence Detection System (Applera, Foster City, Calif.) (Goldklang et al., 2012). The following primers were used to check the respective gene expression: ABCA1 (Hs01059118_m1), ABCG1 (Hs00245154_m1), MMP-9 (Mm00442991_m1), IL-1β (Mm00434227_g1), TNF-α (Mm00443260_g1) and GAPDH (4352932E) from TaqMan Gene Expression Assays, Applied Biosystems, CA. β-actin was used as a control since it is a housekeeping gene.
The lungs of mice (-10 mg) were homogenized in 1 ml of Radioimmunoprecipitation assay (RIPA) buffer, and centrifuged at 14,000 g for 10 min. The protein concentration of each sample was measured using a Bradford reagent. The required amount of each sample was then used for western blot analysis, so that the concentration was equal for all samples. Proteins were first separated on the basis of molecular weight via sodium dodecyl sulphate polyacrylamide gel electrophoresis (SDS-PAGE). The same gel was then transferred onto a nitro cellulose membrane with the help of electric current (or electroblotting) that transfers the protein from polyacrylamide gel to the membrane. This membrane was then incubated in the solution containing primary antibodies, specific for the proteins of interest, ABCA1 and ABCG1, followed by the use of a secondary antibody that allowed the detection of protein by chemiluminescent. […]

[2] = In vivo bioavailability of LXR agonist in lung and serum (LC/MS/MS); set-up: species or system mouse
Experimental: FIG. 23. In vivo bioavailability of LXR agonist (T0901317) in the lung and serum after intraperitoneal (IP) and custom made diet administration. (A.) T0901317 LC/MS/MS Chromatogram showing no difference among standard and samples in the peak shape and retension time. (B.) Table representing levels of the administered drug in serum and lungs of AKR/J mice by IP (2 and 24 hours post drug administration) and in custom made diet (Research Diets Inc, 0.015% w/w). The result was normalized by using serum volume and lung tissue weight. No T0901317 was detected in control serum and lung.

O=S(=O)(c1ccccc1)N(CC(F)(F)F)c1ccc(C(O)(C(F)(F)F)C(F)(F)F)cc1 [T0901317, N-(2,2,2-trifluoroethyl)-N-[4-[2,2,2-trifluoro-1-hydroxy-1-(trifluoromethyl)ethyl]phenyl]-benzenesulfonamide]
Expression of ABCA1 and ABCG1 (mRNA and protein) ([1]; 5% CSE, LXR agonist 3 μM): maintained at baseline levels
cigarette smoke induced mRNA expression of TLR4/Myd88 ([1]; 5% CSE, LXR agonist 3 μM): inhibited
cigarette smoke induced phosphorylation of JNK and ERK ([1]; 5% CSE, LXR agonist 3 μM, Western blot): inhibited
Expression of ABCA1 and ABCG1 (mRNA and protein) ([1]; 5% CSE, LXR agonist 3 μM, listed as LXR agonist): re-established
CSE induced upregulation of IL-1β and TNFα and downregulation of IL-10 (mRNA) ([1]; ABCA1 WT macrophages, 5% CSE, LXR agonist 3 μM): reversed back to baseline
mRNA and activity of MMP-9 ([1]; ABCA1 WT macrophages, 5% CSE, LXR agonist 3 μM, gelatin zymography): blocked; also recorded: reduced
cigarette smoke-induced pro-inflammatory cytokines and MMP expression and activity ([1]; mouse macrophages treated with CSE): blocked
MMP-9 activity (zymography) and expression, MMP-13 expression and TNFα expression ([1]; smoke-induced, macrophages): decrease
drug detected in the lungs ([2]; after IP administration, acute 10 day model): detected
drug detected in the lungs ([2]; chronic 5 months model (diet 0.015% w/w), text prints after IP administration): detected

From patent US20160310454A1, “LIVER X RECEPTOR AGONISTS IN THE TREATMENT OF EMPHYSEMA” (priority 2013, published 2016)
